This data set has as its target T1, human TLR9 (Homo sapiens, UniProt Q9NR96).
T1 construct: HA; host or cells: 293XL-hTLR9-HA (HEK293)
T1 sequence (Q9NR96 26-1032): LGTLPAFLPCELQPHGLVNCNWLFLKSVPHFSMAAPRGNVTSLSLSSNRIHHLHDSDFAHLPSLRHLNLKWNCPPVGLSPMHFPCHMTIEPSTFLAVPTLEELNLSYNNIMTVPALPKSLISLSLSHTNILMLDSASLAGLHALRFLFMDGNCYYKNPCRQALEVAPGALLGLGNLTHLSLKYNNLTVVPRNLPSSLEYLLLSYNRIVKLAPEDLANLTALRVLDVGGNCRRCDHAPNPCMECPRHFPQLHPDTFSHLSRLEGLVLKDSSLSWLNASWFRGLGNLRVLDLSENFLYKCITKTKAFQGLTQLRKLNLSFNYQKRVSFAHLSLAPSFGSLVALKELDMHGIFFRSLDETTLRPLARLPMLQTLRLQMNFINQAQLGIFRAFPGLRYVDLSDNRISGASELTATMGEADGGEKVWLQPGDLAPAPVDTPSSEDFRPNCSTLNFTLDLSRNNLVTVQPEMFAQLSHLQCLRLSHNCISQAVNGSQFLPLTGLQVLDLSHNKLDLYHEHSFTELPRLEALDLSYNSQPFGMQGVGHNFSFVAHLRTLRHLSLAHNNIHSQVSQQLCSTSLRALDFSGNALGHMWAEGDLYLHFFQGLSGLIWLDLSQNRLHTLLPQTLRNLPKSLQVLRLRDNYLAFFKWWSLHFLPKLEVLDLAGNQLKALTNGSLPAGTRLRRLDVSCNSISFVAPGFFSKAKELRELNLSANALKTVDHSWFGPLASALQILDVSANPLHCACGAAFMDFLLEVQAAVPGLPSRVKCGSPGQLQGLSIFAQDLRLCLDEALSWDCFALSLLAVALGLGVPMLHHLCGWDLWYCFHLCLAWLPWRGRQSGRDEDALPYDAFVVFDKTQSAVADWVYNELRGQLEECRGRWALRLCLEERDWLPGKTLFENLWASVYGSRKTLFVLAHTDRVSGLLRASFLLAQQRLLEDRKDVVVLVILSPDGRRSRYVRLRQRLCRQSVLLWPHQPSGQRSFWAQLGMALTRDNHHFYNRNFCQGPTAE
In words: HEK-TLR9 NF-κB-luciferase reporter, ODN2006 stimulation. The class given is cell-based. The following applies: averaged NF-κB-Luciferase relative to ODN2006 condition; for TLR9 100 nM: MOE-modified ASO at 100 nM; for TLR9 500 nM: MOE-modified ASO at 500 nM.

As to “GTCCACATCCTGTGGCTCGT (antisense; 2'-MOE modified, pattern not given here) [CAMSAP1-2906 MOE]”, the “TLR9 100 nM” value came to 0.559 and the “TLR9 500 nM” value stood at 0.254.
With “GAGGTCTTGGCTTCGTGGAG (antisense; 2'-MOE modified, pattern not given here) [MB21D1-523 MOE]”, the “TLR9 100 nM” value came out at 0.888 and the “TLR9 500 nM” value is given as 0.650.
The corresponding values for “CTTACTTTCCGAGGTGTCCA (antisense; 2'-MOE modified, pattern not given here) [CAMSAP1-1739 MOE]” are 0.647 and 0.531.
“GAACCACGTCTGCTCTAACA (antisense; 2'-MOE modified, pattern not given here) [CAMSAP1-1635 MOE]”: the “TLR9 100 nM” value was found to be 0.588 and the “TLR9 500 nM” value came to 0.466.
Turning to “CGTGTCTGGAAGCTTCCTTT (antisense; 2'-MOE modified, pattern not given here) [CTNN2B-808 MOE]”, the “TLR9 100 nM” value is 0.568 and the “TLR9 500 nM” value amounted to 0.259.
On the same counts, the results for “CACCCACTTGGCAGACCATC (antisense; 2'-MOE modified, pattern not given here) [CTNN2B-1576 MOE]” are 0.665 and 0.677.
On the same counts, the results for “GGTGGTCCACAACCCCTTTC (antisense; 2'-MOE modified, pattern not given here) [MB21D1-697 MOE]” are 0.456 and 0.071.
The corresponding values for “AACACTTCGTGGGGTCCTTT (antisense; 2'-MOE modified, pattern not given here) [HPRT-664 MOE]” are 0.426 and 0.402.
Consider “GGAGATTTCAGAGCAGCTTC (antisense; 2'-MOE modified, pattern not given here) [EGFR-4885 MOE]”, for which the “TLR9 100 nM” value is given as 0.541 and the “TLR9 500 nM” value is reported as 0.381.
With “GCGACTATACGCGCAATATG (antisense; 2'-MOE modified, pattern not given here) [NC5 2′MOE]”, the “TLR9 100 nM” value was determined as 0.395 and the “TLR9 500 nM” value is 0.035.
Consider “GCGTGTCTGGAAGCTTCCTT (antisense; 2'-MOE modified, pattern not given here) [CTNN2B-809 MOE]”, for which the “TLR9 100 nM” value is reported as 0.263 and the “TLR9 500 nM” value is given as 0.229.
On the same counts, the results for “TTGGCTCGGCTTGCCTACTT (antisense; 2'-MOE modified, pattern not given here) [CAMSAP1-5594 MOE]” are 0.705 and 0.445.
The corresponding values for “CTGTGATCTTGACATGCTGC (antisense; 2'-MOE modified, pattern not given here) [EGFR-2790 MOE]” are 0.506 and 0.298.
The corresponding values for “ACTGACTGTCTTGAGGGTTC (antisense; 2'-MOE modified, pattern not given here) [MB21D1-1483 MOE]” are 0.424 and 0.291.
As to “GTCTTGGCTTCGTGGAGCAG (antisense; 2'-MOE modified, pattern not given here) [MB21D1-520 MOE]”, the “TLR9 100 nM” value stood at 0.709 and the “TLR9 500 nM” value came to 0.599.
On the same counts, the results for “GTCCTTGCACGTGGCTTCGT (antisense; 2'-MOE modified, pattern not given here) [EGFR-1013 MOE]” are 0.682 and 0.602.
With “CAGATAGCACCTTCAGCACT (antisense; 2'-MOE modified, pattern not given here) [CTNN2B-1294 MOE]”, the “TLR9 100 nM” value turned out to be 0.583 and the “TLR9 500 nM” value is recorded as 0.484.
In the case of “GAGTCTCTGGAGCTTCCTCT (antisense; 2'-MOE modified, pattern not given here) [CAMSAP1-2456 MOE]”, the “TLR9 100 nM” value came to 0.594 and the “TLR9 500 nM” value stood at 0.127.
On the same counts, the results for “GCGGAGGTCTTGGCTTCGTG (antisense; 2'-MOE modified, pattern not given here) [MB21D1-526 MOE]” are 0.682 and 0.246.
Consider “GTGTCTTCATCGGCCCTGCC (antisense; 2'-MOE modified, pattern not given here) [CAMSAP1-2113 MOE]”, for which the “TLR9 100 nM” value is 0.611 and the “TLR9 500 nM” value is reported as 0.201.
The corresponding values for “TTCTGCAGCTTCCTTGTCCT (antisense; 2'-MOE modified, pattern not given here) [CTNN2B-2136 MOE]” are 0.746 and 0.467.
On the same counts, the results for “TCGCACTTCAGTCTGAGCAG (antisense; 2'-MOE modified, pattern not given here) [MB21D1-719 MOE]” are 0.521 and 0.266.
Take “CTCTTGAAGCATCGTATCAC (antisense; 2'-MOE modified, pattern not given here) [CTNN2B-3648 MOE]”: the “TLR9 100 nM” value amounted to 0.721 and the “TLR9 500 nM” value stood at 0.472.
The corresponding values for “ATGTCCCCTGTTGACTGGTC (antisense; 2'-MOE modified, pattern not given here) [HPRT-489 MOE]” are 0.968 and 0.953.
The corresponding values for “TGTCTTCATCGGCCCTGCCT (antisense; 2'-MOE modified, pattern not given here) [CAMSAP1-2112 MOE]” are 0.697 and 0.480.
On the same counts, the results for “ACAGTGTTGAGATACTCGGG (antisense; 2'-MOE modified, pattern not given here) [EGFR-3652 MOE]” are 0.436 and 0.194.

For the origin of these results see patent US20240384268A1, “Oligonucleotides” (Hudson Institute of Medical Research, priority 2021, published 2024).
